Data taken from patent US11123354B2, “Method for the treatment of osteoarthritis” (ABIOGEN PHARMA S.P.A., priority 2016, dated 2021).

Assay: Pharmacokinetics and knee joint localization of 14C-Chlodronate after single intra-articular injection
Type: in vivo, rat
Conditions: for residual concentration in femoral articular cartilage / residual concentration in femoral articular cartilage as % of the value measured at t=30 minutes: first order exponential approximation; for radioactivity in Femoral Articular Cartilage / radioactivity in Tibial Articular Cartilage: osteoarthritic rats, single i.a. 0.1 mg (2 mg/ml)
Description: In this study the pharmacokinetics of ^14C-Chlodronate was evaluated, and the localization of the labeled compound in the knee joint following a single intra-articular injection of 0.1 mg of ^14C-Chlodronate, administered as aqueous solution in a concentration of 2 mg/ml, in sham and osteoarthritic rat models was verified.
The pharmacokinetic parameters of ^14C-Chlodronate were determined by measuring the radioactivity of blood samples collected at different timepoints from the time of injection.
The localization of the labeled compound in the knee joint was determined by leg x-rays. The fitting of radioactivity concentrations, expressed in μCi/g, was performed by using standard curves.

[1] = about two weeks after the injection
[2] = osteoarthritis rat model, 30 minutes from the injection

With `O=P(O)(O)[14C](Cl)(Cl)P(=O)(O)O` [^14C-Chlodronate] the “radioactivity mean value in the cartilage” value (168 hours (7 days) after the injection) was “about 25 μCi/g”, the “radioactivity in cartilage as % of the value found half an hour after the injection” value (168 hours after the injection) was “more than 62%” and the “residual concentration in femoral articular cartilage” value (about 1 month after injection) was “about 8.78 μCi/g”. For the same compound, the “residual concentration in femoral articular cartilage as % of the value measured at t=30 minutes” value (about 1 month after injection) was “about 24.27%”, the “residual concentration in femoral articular cartilage” value [1] was “about 18.92 μCi/g” and the “residual concentration in femoral articular cartilage as % of the value measured at t=30 minutes” value [1] was “about 44.36%”. For the same compound, the “concentration in both femoral and tibial cartilage relative to the value measured at t=30 minutes” value (about two weeks after the injection, first order exponential approximation of Table 7 data) was > 40%, the “concentration of 14C-Chlodronate in the blood” value (after a few hours from the injection) was “very modest, practically negligible” and the “radioactivity in Femoral Articular Cartilage” value (t = 30 minutes) was 42.649 μCi/g. For the same compound, the “radioactivity in Tibial Articular Cartilage” value (t = 30 minutes) was 36.935 μCi/g, the “radioactivity in Femoral Articular Cartilage” value (t = 6 hours) was 36.163 μCi/g and the “radioactivity in Tibial Articular Cartilage” value (t = 6 hours) was 27.299 μCi/g. For the same compound, the “radioactivity in Femoral Articular Cartilage” value (t = 24 hours) was 34.712 μCi/g, the “radioactivity in Tibial Articular Cartilage” value (t = 24 hours) was 27.840 μCi/g and the “radioactivity in Femoral Articular Cartilage” value (t = 72 hours) was 25.561 μCi/g. For the same compound, the “radioactivity in Tibial Articular Cartilage” value (t = 72 hours) was 22.331 μCi/g, the “radioactivity in Femoral Articular Cartilage” value (t = 168 hours) was 28.020 μCi/g and the “radioactivity in Tibial Articular Cartilage” value (t = 168 hours) was 21.165 μCi/g. The “radioactivity concentration in the articular cartilage” value [2] was “about 40 μCi/g” and the “radioactivity concentration in the synovial cavity and in the femoral and tibial bone” value [2] was “lower than 1 μCi/g”.
